Experimental data published in US5631259A, “Cycloalkltriols containing cyclic substituents, processes and intermediate products for their preparation and their use as antiviral and antiparasitic agents” (priority 1991, dated 1997).

Key:
in vitro = conditions: human, hela cells
Pneumocystis carinii = Pneumocystis carinii pneumonia in dexamethasone-treated rats, bronchial lavage evaluated with Pneumocystis carinii test kit; format: in vivo, Spraque-Dawley rats; conditions: Monday, Wednesday and Friday for two weeks
Protocol: Pneumocystis carinii--Description of the experiment and results
Spraque-Dawley rats, 200-220 g, were collected into groups of 10 animals and treated with dexamethasone 1.5 mg/ml; of loxacin 0.2 mg/rat via the drinking water in order to induce the outbreak of pneumonia caused by Pneumocystis carinii.
After 7 weeks, the dexamethasone treatment was stopped and the preparation treatment was started.
Treatment was carried out every Monday, Wednesday and Friday for two weeks as follows:
2. pentamidine 20 mg/kg i.m.
3. pentamidine 40 mg/kg i.m.
After the two treatment weeks, a bronchial lavage was performed on the animals under Nembutal anesthesia.
The bronchial suspensions obtained were worked up and evaluated using the Pneumocystis carinii test kit from Progen Biotechnik GmbH, Heidelberg, Germany.

`Nc1ncnc2c1ncn2[C@@H]1C[C@H](O)[C@@H](O)[C@H]1O` (racemic) [Example 3.1.1, 9-[(1RS,2SR,3RS,4SR)-2,3,4-trihydroxycyclo-pent-1-yl]adenine] gave an MNTC (in vitro) of over 400 µg/mL.
Compound `CNc1ncnc2c1ncn2[C@H]1C[C@@H](O)[C@H](O)[C@@H]1O` (relative stereo) [Example 3.3, N^6-methyl-9-[(1RS,2SR,3RS,4SR)-trihydroxy-cyclopent-1-yl]adenine] has an MNTC (in vitro) of over 400 µg/mL.
For `N=C(N)c1ccc(OCCCCCOc2ccc(C(=N)N)cc2)cc1` [pentamidine], the “Reduction (%)” value (Pneumocystis carinii; 20 mg/kg i.m.) was 37.7% and the “Reduction (%)” value (Pneumocystis carinii; 40 mg/kg i.m.) was 16.9%.
In the case of `O=c1c(Cl)c(Cl)cnn1[C@@H]1C[C@H](O)[C@@H](O)[C@H]1O` (racemic) [Example 3.10.1, 4,5-dichloro-2-[(1RS,2SR,3RS,4SR)-2,3,4-trihydroxy-cyclopent-1-yl]pyridazin-3(2H)-one], the “Reduction (%)” value (Pneumocystis carinii; 20 mg/kg oral) is reported as 22.9%.
